# Key:
# S. aureus ATCC 13709 = assay: MIC, S. aureus ATCC 13709; assay type: cell-based; conditions: Alamar Blue read after overnight incubation at 35° C.; for MIC Sa: S. aureus; for MIC: Staphylococcus aureus, ATCC13709, S. aureus, read-out: MIC Sa
# E. coli ATCC 25922 = assay: MIC, E. coli ATCC 25922; assay type: cell-based; conditions: Alamar Blue read after overnight incubation at 35° C.; for MIC Ec: E. coli; for MIC: Escherichia coli, ATCC25922, E. coli, read-out: MIC Ec
Compound,MIC Sa (S. aureus ATCC 13709),MIC Ec (E. coli ATCC 25922),MIC (S. aureus ATCC 13709),MIC (E. coli ATCC 25922)
CNc1cc(F)cc2c1[nH]c1nc(Oc3cnc(C)nc3)nc(-c3cn[nH]c3)c12 [Compound 4.418],≤0.5 µg/mL,1 µg/mL,–,–
Cc1ncc(Oc2nc(N3C[C@H](N)C4(CC4)C3)c3c(n2)[nH]c2c(N(C)C(=O)[C@H](C)N)cc(F)cc23)cn1 [Compound 4.423],–,–,> 16 µg/mL,> 16 µg/mL
Cc1ncc(Oc2nc(N3C[C@H](N)C4(CC4)C3)c3c(n2)[nH]c2c(N(C)C(=O)[C@H](C)NC(=O)[C@H](C)N)cc(F)cc23)cn1 [Compound 4.425],–,–,> 16 µg/mL,> 16 µg/mL
Cc1ncc(Oc2nc(N3C[C@H](N)C4(CC4)C3)c3c(n2)[nH]c2c(N(C)C(=O)CN)cc(F)cc23)cn1 [Compound 4.426],–,–,8 µg/mL,> 16 µg/mL
Cc1ncc(Oc2nc(N3C[C@H](NC(=O)CN)C4(CC4)C3)c3c(n2)[nH]c2c(N(C)C(=O)CN)cc(F)cc23)cn1 [Compound 4.427],–,–,> 16 µg/mL,> 16 µg/mL
CNc1cc(F)cc2c1[nH]c1nc(Oc3cnc(CCO)nc3)nc(N3CC4CC3C[C@@H]4N)c12 (stereo partly drawn) [Compound 4.428],–,–,≤ 0.5 µg/mL,2 µg/mL
CNc1cc(F)cc2c1[nH]c1nc(Oc3cnc(CCO)nc3)nc(N3CC4C[C@@H](N)C4C3)c12 (stereo partly drawn) [Compound 4.429],–,–,≤ 0.5 µg/mL,1 µg/mL
CNc1cc(F)cc2c1[nH]c1nc(Oc3cnc(C(C)O)nc3)nc(N3CC4(CC[C@H]4N)C3)c12 (stereo partly drawn) [Compound 4.430],–,–,≤ 0.5 µg/mL,≤ 0.5 µg/mL
CNc1cc(F)cc2c1[nH]c1nc(Oc3cnc(C(C)(C)O)nc3)nc(N3CC4(CC[C@H]4N)C3)c12 [Compound 4.431],–,–,≤ 0.5 µg/mL,≤ 0.5 µg/mL
CNc1cc(F)cc2c1[nH]c1nc(Oc3cnc(C)nc3)nc(-c3ccc(Cl)c(N)c3)c12 [Compound 4.432],–,–,≤ 0.5 µg/mL,> 16 µg/mL
CNc1cc(F)cc2c1[nH]c1nc(Oc3cnc(OC)nc3)nc(N3C[C@H](N)C4(CC4)C3)c12 [Compound 4.433],–,–,≤ 0.5 µg/mL,≤ 0.5 µg/mL
CNc1cc(F)cc2c1[nH]c1nc(Oc3cnc(C#N)c(C)c3)nc(N3CC4CC3C[C@@H]4N)c12 (stereo partly drawn) [Compound 4.435],–,–,≤ 0.5 µg/mL,≤ 0.5 µg/mL
CNc1cc(F)cc2c1[nH]c1nc(Oc3cnc(C)nc3)nc(N3CC(N)C(C(F)(F)F)C3)c12 (stereo not drawn) [Compound 4.436],–,–,≤ 0.5 µg/mL,> 16 µg/mL
CNc1cc(F)cc2c1[nH]c1nc(Oc3cnc(C)nc3)nc(N3CC(N)C(C(=O)OC)C3)c12 (stereo not drawn) [Compound 4.437],–,–,≤ 0.5 µg/mL,1 µg/mL
CNc1cc(F)cc2c1[nH]c1nc(Oc3cnc(C)nc3)nc(N3CC(N)C(C(=O)N4CCOCC4)C3)c12 (stereo not drawn) [Compound 4.438],–,–,1 µg/mL,16 µg/mL
CNc1cc(F)cc2c1[nH]c1nc(Oc3cnc(C)nc3)nc(N3CC(N)C(C(=O)NCC(C)O)C3)c12 (stereo not drawn) [Compound 4.439],–,–,8 µg/mL,> 16 µg/mL
CNc1cc(F)cc2c1[nH]c1nc(Oc3cnc(C)nc3)nc(N3CC(N)C(C(=O)NCCN4CCOCC4)C3)c12 (stereo not drawn) [Compound 4.440],–,–,16 µg/mL,> 16 µg/mL
CNc1cc(F)cc2c1[nH]c1nc(Oc3cnc(C(C)(C)C)nc3)nc(N3CC4CC3C[C@H]4N)c12 (stereo partly drawn) [Compound 4.441],–,–,≤ 0.5 µg/mL,≤ 0.5 µg/mL
CNc1cc(F)cc2c1[nH]c1nc(Oc3cnc(C(C)(C)N)nc3)nc(N3C[C@H]4CC3C[C@H]4N)c12 [Compound 4.442],–,–,1 µg/mL,2 µg/mL
CNc1cc(F)cc2c1[nH]c1nc(Oc3cnc(CF)nc3)nc(N3C[C@H]4CC3C[C@H]4N)c12 [Compound 4.443],–,–,≤ 0.5 µg/mL,≤ 0.5 µg/mL
CNc1cc(F)cc2c1[nH]c1nc(Oc3cnc(C)nc3)nc(-c3ccc(F)cc3CN)c12 [Compound 4.445],–,–,2 µg/mL,> 16 µg/mL
CNc1cc(F)cc2c1[nH]c1nc(Oc3cnc(C)nc3)nc(-c3cc(CN)ccc3F)c12 [Compound 4.446],–,–,2 µg/mL,8 µg/mL
CNc1cc(F)cc2c1[nH]c1nc(Oc3cnc(C)nc3)nc(-c3cccc(CN)c3F)c12 [Compound 4.447],–,–,4 µg/mL,16 µg/mL
CNc1cc(F)cc2c1[nH]c1nc(Oc3cnc(C)nc3)nc(-c3cccnc3N)c12 [Compound 4.448],–,–,≤ 0.5 µg/mL,1 µg/mL
CNc1cc(F)cc2c1[nH]c1nc(Oc3cnc(C)nc3)nc(-c3cncnc3)c12 [Compound 4.449],–,–,≤ 0.5 µg/mL,> 16 µg/mL
CNc1cc(F)cc2c1[nH]c1nc(Oc3cnc(C)nc3)nc(-c3cncc(N)c3)c12 [Compound 4.450],–,–,≤ 0.5 µg/mL,2 µg/mL
CNc1cc(F)c(F)c2c1[nH]c1nc(Oc3ncc(C)cn3)nc(N3CC4C(N)C4C3)c12 (stereo not drawn) [Compound 5.04],≤0.5 µg/mL,≤0.5 µg/mL,–,–
CNc1cc(F)c(F)c2c1[nH]c1nc(Oc3ncc(C)cn3)nc(N3CC(N)C3)c12 [Compound 5.06],≤0.5 µg/mL,≤0.5 µg/mL,–,–
CNc1cc(F)c(F)c2c1[nH]c1nc(Oc3cnc(CO)nc3)nc(N3C[C@H]4C[C@@H]3C[C@H]4N)c12 [Compound 5.14],–,–,≤ 0.5 µg/mL,≤ 0.5 µg/mL
CNc1cc(F)c(F)c2c1[nH]c1nc(Oc3cnc4c(c3)ncn4C3CC3)nc(N3C[C@H]4C[C@@H]3C[C@H]4N)c12 [Compound 5.15],–,–,≤ 0.5 µg/mL,1 µg/mL

# Further lines, results first:
MIC Sa (S. aureus ATCC 13709),MIC Ec (E. coli ATCC 25922),MIC (S. aureus ATCC 13709),MIC (E. coli ATCC 25922),Compound
>16 µg/mL,>16 µg/mL,–,–,CNc1cc(F)c(F)c2c1[nH]c1nc(Oc3cncnc3)nc(N3CC4C(N)C4C3)c12 (stereo not drawn) [Compound 6.19]
4 µg/mL,>16 µg/mL,–,–,CNc1cc(F)c(C)c2c1[nH]c1nc(Oc3cnc(C)nc3)nc(N3CC4(CCC4N)C3)c12 (stereo not drawn) [Compound 6.20]
>16 µg/mL,>16 µg/mL,–,–,CNc1cc(F)c(C)c2c1[nH]c1nc(Oc3cnc(C)nc3)nc(NCCCN)c12 [Compound 6.21]
≤0.5 µg/mL,1 µg/mL,–,–,CNc1cc(C)cc2c1[nH]c1nc(Oc3cnc(C)nc3)nc(N3CC4C(N)C4C3)c12 (stereo not drawn) [Compound 6.26]
≤0.5 µg/mL,1 µg/mL,–,–,CNc1cc(C)cc2c1[nH]c1nc(Oc3cncnc3)nc(N3CC4C(N)C4C3)c12 (stereo not drawn) [Compound 6.27]
–,–,8 µg/mL,> 64 µg/mL,CNc1nccc2c1[nH]c1nc(Sc3cnc4nccnc4c3)nc(N3CC[C@@H](N)C3)c12 [Compound 7.01]
–,–,> 64 µg/mL,32 µg/mL,CNc1nccc2c1[nH]c1nc(Oc3cncnc3)nc(N3CC[C@@H](N)C3)c12 [Compound 7.02]
–,–,2 µg/mL,> 64 µg/mL,COc1nccc2c1[nH]c1nc(Sc3cnc4cccnc4c3)nc(N3CC4C(N)C4C3)c12 (stereo not drawn) [Compound 7.03]
–,–,8 µg/mL,32 µg/mL,CNc1ncnc2c1[nH]c1nc(Oc3cncc(F)c3)nc(N3CC4C(N)C4C3)c12 (stereo not drawn) [Compound 7.04]
–,–,8 µg/mL,64 µg/mL,CNc1ncnc2c1[nH]c1nc(Oc3cnc(C)nc3)nc(N3CC4C(N)C4C3)c12 (stereo not drawn) [Compound 7.05]
–,–,8 µg/mL,64 µg/mL,CNc1ncnc2c1[nH]c1nc(Oc3cncc(F)c3)nc(N3CC(N)C4(CC4)C3)c12 (stereo not drawn) [Compound 7.06]
–,–,16 µg/mL,> 64 µg/mL,CNc1nccc2c1[nH]c1nc(Oc3cncc(F)c3)nc(N3CCC4(CC4N)C3)c12 (stereo not drawn) [Compound 7.07]
–,–,16 µg/mL,> 64 µg/mL,CNc1ncnc2c1[nH]c1nc(Oc3cnc(C)nc3)nc(N3CC(N)C4(CC4)C3)c12 (stereo not drawn) [Compound 7.08]
–,–,8 µg/mL,> 64 µg/mL,CNc1ncnc2c1[nH]c1nc(Oc3cnc(C)nc3)nc(N3CCC4(CC4N)C3)c12 (stereo not drawn) [Compound 7.09]
–,–,> 64 µg/mL,> 64 µg/mL,CNc1ncnc2c1[nH]c1nc(Oc3cncnc3)nc(Oc3cncnc3)c12 [Compound 7.10]
–,–,> 64 µg/mL,> 64 µg/mL,CNc1ncnc2c1[nH]c1nc(-c3cncnc3)nc(N3CC4C(N)C4C3)c12 (stereo not drawn) [Compound 7.11]
–,–,> 64 µg/mL,> 64 µg/mL,CNc1ncnc2c1[nH]c1nc(Oc3cnc(C)nc3)nc(N3CCC(CN)C3)c12 (stereo not drawn) [Compound 7.12]
–,–,2 µg/mL,> 64 µg/mL,CNc1cccc2c1[nH]c1nc(Oc3cncnc3)nc(Oc3cncnc3)c12 [Compound 8.1]
–,–,1 µg/mL,> 32 µg/mL,CNc1cccc2c1[nH]c1nc(Oc3cnc(C)nc3)nc(Oc3cnc(C)nc3)c12 [Compound 8.2]
–,–,2 µg/mL,64 µg/mL,CNc1cccc2c1[nH]c1nc(Oc3ccc[n+]([O-])c3)nc(Oc3cnc(C)nc3)c12 [Compound 8.3]
–,–,8 µg/mL,> 64 µg/mL,CNc1cccc2c1[nH]c1nc(Oc3cnc(N)nc3)nc(Oc3cnc(N)nc3)c12 [Compound 8.4]

# Reference: patent US10865216B2, “Tricyclic Gyrase inhibitors” (MERCK SHARP & DOHME CORP., priority 2012, dated 2020)
